From patent US9902702B2, “Spirocycloheptanes as inhibitors of rock” (BRISTOL-MYERS SQUIBB COMPANY, priority 2014, dated 2018) come the findings set out here.

Counter-ions that a name gives are not always drawn.

This assay addresses ROCK2 (Homo sapiens, UniProt O75116). The assay is described as follows: ROCK assay: phosphorylation of FITC peptide substrate, LABCHIP 3000 mobility shift. In kind it is biochemical. The conditions noted are these: 5 μM ATP, 1.5 μM peptide substrate; read-out: ROCK2 Activity (ROCK IC50 range). The method, boiled down:
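IC50 values come from curve-fitting percent kinase inhibition across a compound dilution series. The reaction is started with Rho kinase variant in HEPES pH 7.5 buffer with MgCl2, Brij-35 and DTT, with 5 μM ATP, 1.5 μM FITC-labelled peptide and under 2% DMSO. After EDTA quench, product and substrate are separated by microfluidic mobility shift.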

ROCK2, sequence (O75116 whole entry, species assumed): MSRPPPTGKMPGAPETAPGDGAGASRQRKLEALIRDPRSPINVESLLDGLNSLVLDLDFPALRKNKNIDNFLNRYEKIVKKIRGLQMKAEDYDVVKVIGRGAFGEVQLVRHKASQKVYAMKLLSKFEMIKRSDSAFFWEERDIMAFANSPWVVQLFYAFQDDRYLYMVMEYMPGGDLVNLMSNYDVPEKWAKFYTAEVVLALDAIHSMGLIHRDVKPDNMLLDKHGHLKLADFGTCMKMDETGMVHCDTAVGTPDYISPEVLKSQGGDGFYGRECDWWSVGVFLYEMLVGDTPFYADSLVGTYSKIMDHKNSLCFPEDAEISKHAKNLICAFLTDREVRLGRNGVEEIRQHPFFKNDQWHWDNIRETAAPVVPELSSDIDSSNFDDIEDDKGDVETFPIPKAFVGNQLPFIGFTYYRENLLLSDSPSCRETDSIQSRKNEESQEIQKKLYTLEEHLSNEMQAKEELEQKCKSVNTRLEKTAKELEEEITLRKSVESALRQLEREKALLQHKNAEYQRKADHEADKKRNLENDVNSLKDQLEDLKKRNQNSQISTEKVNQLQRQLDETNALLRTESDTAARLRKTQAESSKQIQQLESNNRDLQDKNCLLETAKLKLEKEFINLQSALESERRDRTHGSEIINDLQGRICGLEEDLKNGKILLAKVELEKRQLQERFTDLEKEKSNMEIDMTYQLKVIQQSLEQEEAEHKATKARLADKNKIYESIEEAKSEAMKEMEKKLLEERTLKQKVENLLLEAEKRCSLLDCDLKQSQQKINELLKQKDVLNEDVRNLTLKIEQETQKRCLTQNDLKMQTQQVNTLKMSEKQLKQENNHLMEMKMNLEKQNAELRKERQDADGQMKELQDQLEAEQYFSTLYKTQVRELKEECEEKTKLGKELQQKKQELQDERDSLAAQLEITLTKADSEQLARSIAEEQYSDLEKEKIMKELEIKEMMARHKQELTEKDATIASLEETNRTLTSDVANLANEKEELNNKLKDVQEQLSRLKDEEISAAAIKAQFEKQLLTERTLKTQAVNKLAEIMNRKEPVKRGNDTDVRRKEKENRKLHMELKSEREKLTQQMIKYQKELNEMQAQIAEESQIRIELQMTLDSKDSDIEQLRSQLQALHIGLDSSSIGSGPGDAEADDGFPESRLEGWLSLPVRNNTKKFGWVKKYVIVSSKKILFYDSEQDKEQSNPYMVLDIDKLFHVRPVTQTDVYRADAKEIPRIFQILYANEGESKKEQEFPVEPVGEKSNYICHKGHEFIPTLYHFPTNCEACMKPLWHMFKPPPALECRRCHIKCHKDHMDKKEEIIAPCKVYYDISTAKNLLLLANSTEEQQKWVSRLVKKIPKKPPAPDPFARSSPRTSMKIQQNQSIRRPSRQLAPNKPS

What is called IC50 is the midpoint of a concentration-inhibition curve. Take `CC(C)(O)COc1ccc2c(C(=O)NC3CC4(C3)CC(c3n[nH]c(=O)n5cccc35)C4)cnn2c1` (centres unmarked) [Example 279, 6-(2-hydroxy-2-methylpropoxy)-N-(6-(4-oxo-3,4-dihydropyrrolo[1,2-d][1,2,4]triazin-1-yl)spiro[3.3]heptan-2-yl)pyrazolo[1,5-a]pyridine-3-carboxamide, TFA]: the IC50 was in the range of 2.01 to 5 nM. On to `Cn1nc(C(=O)NC2CC3(C2)CC(c2n[nH]c(=O)n4cccc24)C3)c2ccccc21` (centres unmarked) [Example 280, 1-methyl-N-(6-(4-oxo-3,4-dihydropyrrolo[1,2-d][1,2,4]triazin-1-yl)spiro[3.3]heptan-2-yl)-1H-indazole-3-carboxamide, TFA], for which the 50% inhibitory concentration (IC50) was in the range of 5.1 to 15 nM. The result for `Cc1ccn2c(=O)[nH]nc(C3CC4(CC(NC(=O)c5cnn6cc(OCC(C)(C)O)ccc56)C4)C3)c12` (centres unmarked) [Example 281, 6-(2-hydroxy-2-methylpropoxy)-N-(6-(8-methyl-4-oxo-3,4-dihydropyrrolo[1,2-d][1,2,4]triazin-1-yl)spiro[3.3]heptan-2-yl)pyrazolo[1,5-a]pyridine-3-carboxamide, TFA] reads 5.1 to 15 nM.

As for `O=C(NC1CC2(C1)CC(c1n[nH]c(=O)c3ccccc13)C2)c1cnn2cccnc12` [Example 282, N-((aR)-6-(4-oxo-3,4-dihydrophthalazin-1-yl)spiro[3.3]heptan-2-yl)pyrazolo[1,5-a]pyrimidine-3-carboxamide], the 50% inhibitory concentration (IC50) was in the range of 100 to 2100 nM. For the molecule `Cc1cc(C)cc(Nc2ccc3ncc(C(=O)NC4CC5(C4)CC(c4n[nH]c(=O)c6ccccc46)C5)n3n2)c1` [Example 283, 6-((3,5-dimethylphenyl)amino)-N-((aR)-6-(4-oxo-3,4-dihydrophthalazin-1-yl)spiro[3.3]heptan-2-yl)imidazo[1,2-b]pyridazine-3-carboxamide], the IC50 lay within 100 to 2100 nM. The result for `O=C(N[C@H]1CC2(C1)C[C@H](c1n[nH]c(=O)c3ccccc31)C2)c1onc2cc(Br)ccc12` (stereo partly drawn) [Example 284, 6-bromo-N-((aR)-6-(4-oxo-3,4-dihydrophthalazin-1-yl)spiro[3.3]heptan-2-yl)benzo[c]isoxazole-3-carboxamide] reads 2.01 to 5 nM. The value for `CCn1nccc1C(=O)NC1CC2(C1)CC(c1n[nH]c(=O)c3ccccc13)C2` [Example 285, 1-ethyl-N-((aR)-6-(4-oxo-3,4-dihydrophthalazin-1-yl)spiro[3.3]heptan-2-yl)-1H-pyrazole-5-carboxamide] was 15.1 to 100 nM; that for `O=C(NC1CC2(C1)CC(c1n[nH]c(=O)c3ccccc13)C2)c1ccnn1C(F)F` [Example 286, 1-(difluoromethyl)-N-((aR)-6-(4-oxo-3,4-dihydrophthalazin-1-yl)spiro[3.3]heptan-2-yl)-1H-pyrazole-5-carboxamide] was 15.1 to 100 nM; that for `CC(C)(O)COc1ccc2c(C(=O)NC3CC4(C3)CC(c3n[nH]c(=O)c5ccccc35)C4)onc2c1` [Example 287, 6-(2-hydroxy-2-methylpropoxy)-N-((aR)-6-(4-oxo-3,4-dihydrophthalazin-1-yl)spiro[3.3]heptan-2-yl)benzo[c]isoxazole-3-carboxamide, TFA] was 0.2 to 2 nM. Turning to `O=C(NC1CC2(C1)CC(c1n[nH]c(=O)c3ccccc13)C2)c1nn(-c2cccc(Cl)c2)c2c1CCNC2=O` [Example 288, 1-(3-chlorophenyl)-7-oxo-N-((aR)-6-(4-oxo-3,4-dihydrophthalazin-1-yl)spiro[3.3]heptan-2-yl)-4,5,6,7-tetrahydro-1H-pyrazolo[3,4-c] pyridine-3-carboxamide], the IC50 lay in the range of 15.1 to 100 nM.

Take `COc1ccc(-n2nc(C(=O)NC3CC4(C3)CC(c3n[nH]c(=O)c5ccccc35)C4)c3c2C(=O)NCC3)cc1` [Example 289, 1-(4-methoxyphenyl)-7-oxo-N-((aR)-6-(4-oxo-3,4-dihydrophthalazin-1-yl)spiro[3.3]heptan-2-yl)-4,5,6,7-tetrahydro-1H-pyrazolo[3,4-c]pyridine-3-carboxamide]: the IC50 lay within 15.1 to 100 nM. The value for `O=C(NC1CC2(C1)CC(c1n[nH]c(=O)c3ccccc13)C2)c1noc2ccc(Cl)cc12` [Example 290, 5-chloro-N-((aR)-6-(4-oxo-3,4-dihydrophthalazin-1-yl)spiro[3.3]heptan-2-yl)benzo[d]isoxazole-3-carboxamide] was 2.01 to 5 nM; that for `CC(=O)Nc1ccc2c(C(=O)NC3CC4(C3)CC(c3n[nH]c(=O)c5ccccc35)C4)noc2c1` [Example 291, 6-acetamido-N-((aR)-6-(4-oxo-3,4-dihydrophthalazin-1-yl)spiro[3.3]heptan-2-yl)benzo[d]isoxazole-3-carboxamide] was 5.1 to 15 nM; that for `[H][C@]1(c2n[nH]c(=O)c3ccccc32)C[C@@]2(C[C@H](NC(=O)c3ncn4ccccc34)C2)C1` (stereo partly drawn) [Example 292, N-((aR)-6-(4-oxo-3,4-dihydrophthalazin-1-yl)spiro[3.3]heptan-2-yl)imidazo[1,5-a]pyridine-1-carboxamide] was 15.1 to 100 nM. The result for `[H][C@]1(c2n[nH]c(=O)c3ccccc32)C[C@@]2(C[C@H](NC(=O)c3cc4cc(OC)ccc4n3C)C2)C1` (stereo partly drawn) [Example 293, 5-methoxy-1-methyl-N-((aR)-6-(4-oxo-3,4-dihydrophthalazin-1-yl)spiro[3.3]heptan-2-yl)-1H-indole-2-carboxamide] reads 15.1 to 100 nM; that for `[H][C@]1(c2n[nH]c(=O)c3ccccc32)C[C@@]2(C[C@H](NC(=O)c3cc4ccccc4n3C)C2)C1` (stereo partly drawn) [Example 294, 1-methyl-N-((aR)-6-(4-oxo-3,4-dihydrophthalazin-1-yl)spiro[3.3]heptan-2-yl)-1H-indole-2-carboxamide], 5.1 to 15 nM. Regarding `[H][C@]1(c2n[nH]c(=O)c3ccccc32)C[C@@]2(C[C@H](NC(=O)c3cc4cccc(OC)c4[nH]3)C2)C1` (stereo partly drawn) [Example 295, 7-methoxy-N-((aR)-6-(4-oxo-3,4-dihydrophthalazin-1-yl)spiro[3.3]heptan-2-yl)-1H-indole-2-carboxamide], the half-maximal inhibitory concentration (IC50) lay within 5.1 to 15 nM. The value for `[H][C@]1(c2n[nH]c(=O)c3ccccc32)C[C@@]2(C[C@H](NC(=O)c3nc4c(s3)CN(C)CC4)C2)C1` (stereo partly drawn) [Example 296, 5-methyl-N-((aR)-6-(4-oxo-3,4-dihydrophthalazin-1-yl)spiro[3.3]heptan-2-yl)-4,5,6,7-tetrahydrothiazolo [5,4-c]pyridine-2-carboxamide] was 100 to 2100 nM. The result for `[H][C@]1(c2n[nH]c(=O)c3ccccc32)C[C@@]2(C[C@H](NC(=O)c3cc4c(Cl)cccc4n3C)C2)C1` (stereo partly drawn) [Example 297, 4-chloro-1-methyl-N-((aR)-6-(4-oxo-3,4-dihydrophthalazin-1-yl)spiro[3.3]heptan-2-yl)-1H-indole-2-carboxamide] reads 2.01 to 5 nM; that for `[H][C@]1(c2n[nH]c(=O)c3ccccc32)C[C@@]2(C[C@H](NC(=O)c3cc4ccccc4[nH]3)C2)C1` (stereo partly drawn) [Example 298, N-((aR)-6-(4-oxo-3,4-dihydrophthalazin-1-yl)spiro[3.3]heptan-2-yl)-1H-indole-2-carboxamide], 5.1 to 15 nM; that for `[H][C@]1(c2n[nH]c(=O)c3ccccc32)C[C@]2(C[C@@H](NC(=O)c3c(C)nc4ccccn34)C2)C1` (stereo partly drawn) [Example 299, 2-methyl-N-((aR)-6-(4-oxo-3,4-dihydrophthalazin-1-yl)spiro[3.3]heptan-2-yl)imidazo[1,2-a]pyridine-3-carboxamide], 15.1 to 100 nM. The value for `[H][C@]1(c2n[nH]c(=O)c3ccccc32)C[C@]2(C[C@@H](NC(=O)c3c[nH]c4ccccc34)C2)C1` (stereo partly drawn) [Example 300, N-((aR)-6-(4-oxo-3,4-dihydrophthalazin-1-yl)spiro[3.3]heptan-2-yl)-1H-indole-3-carboxamide] was 5.1 to 15 nM; that for `[H][C@]1(c2n[nH]c(=O)c3ccccc32)C[C@]2(C[C@@H](NC(=O)c3cc4cccc(Cl)c4n3C)C2)C1` (stereo partly drawn) [Example 301, 7-chloro-1-methyl-N-((aR)-6-(4-oxo-3,4-dihydrophthalazin-1-yl)spiro[3.3]heptan-2-yl)-1H-indole-2-carboxamide] was 2.01 to 5 nM; that for `[H][C@]1(c2n[nH]c(=O)c3ccccc32)C[C@]2(C[C@@H](NC(=O)c3cc4c(Cl)ccc(C)c4[nH]3)C2)C1` (stereo partly drawn) [Example 302, 4-chloro-7-methyl-N-((aR)-6-(4-oxo-3,4-dihydrophthalazin-1-yl)spiro[3.3]heptan-2-yl)-1H-indole-2-carboxamide] was 0.2 to 2 nM. As to `[H][C@]1(c2n[nH]c(=O)c3ccccc32)C[C@]2(C[C@@H](NC(=O)c3cc4nccnc4s3)C2)C1` (stereo partly drawn) [Example 303, N-((aR)-6-(4-oxo-3,4-dihydrophthalazin-1-yl)spiro[3.3]heptan-2-yl)thieno[2,3-b]pyrazine-6-carboxamide], the IC50 lay within 5.1 to 15 nM. The result for `[H][C@]1(c2n[nH]c(=O)c3ccccc32)C[C@]2(C[C@@H](NC(=O)c3cnn4cccc(Br)c34)C2)C1` (stereo partly drawn) [Example 304, 4-bromo-N-((aR)-6-(4-oxo-3,4-dihydrophthalazin-1-yl)spiro[3.3]heptan-2-yl)pyrazolo[1,5-a]pyridine-3-carboxamide] reads 15.1 to 100 nM; that for `[H][C@]1(c2n[nH]c(=O)c3ccccc32)C[C@]2(C[C@@H](NC(=O)c3nc4ccc(Cl)cc4[nH]3)C2)C1` (stereo partly drawn) [Example 305, 6-chloro-N-((aR)-6-(4-oxo-3,4-dihydrophthalazin-1-yl)spiro[3.3]heptan-2-yl)-1H-benzo[d] imidazole-2-carboxamide], 15.1 to 100 nM; that for `[H][C@]1(c2n[nH]c(=O)c3ccccc32)C[C@]2(C[C@@H](NC(=O)c3cc4cc(Cl)ccc4n3C)C2)C1` (stereo partly drawn) [Example 306, 5-chloro-1-methyl-N-((aR)-6-(4-oxo-3,4-dihydrophthalazin-1-yl)spiro[3.3]heptan-2-yl)-1H-indole-2-carboxamide], 5.1 to 15 nM. The value for `[H][C@]1(c2n[nH]c(=O)c3ccccc32)C[C@]2(C[C@@H](NC(=O)c3ccc4c(c3)ncn4C(C)C)C2)C1` (stereo partly drawn) [Example 307, 1-isopropyl-N-((aR)-6-(4-oxo-3,4-dihydrophthalazin-1-yl)spiro[3.3]heptan-2-yl)-1H-benzo[d] imidazole-5-carboxamide] was 5.1 to 15 nM.
